Measurements reported in patent US4031235A, “Insecticidal substituted acetate compounds” (Sumitomo Chemical Company, Limited, priority 1972, dated 1977).
≈ marks a conversion by molar mass, not a printed value.

Legend:
Oral toxicity to mice = conditions: mouse, in vivo
[1] = system: adult mosquitoes (Culex pipiens); test: Knock-down of adult mosquitoes by 0.2% oil preparation (Experimental Example 4); assay type: in vivo; conditions: 0.2% oil preparation, 0.7 ml, 1.5 Kg/cm^2, (70 Cm)^3 glass box, read-out: mosquitoes knocked down
Procedure: (§1) 0.2% oil preparation was prepared from each of the compounds (1), (2), (8), (14), (22), (25), (26), (27), (51), (62), (73), (82), (86), (88), to (90), (92), (94), (96), (111), (119), (121), (165), (175), (180), (184), (185), (195), (200), (201), and (208) and allethrin as a control using deodorized kerosene.

oriental house flies [2] = test: Activity on knock-down against oriental house flies (Experimental Example 5); assay type: in vivo; conditions: 0.2% oil preparation, 0.7 ml, 1.5 Kg/cm^2, (70 cm)^3 glass box
Procedure: as §1
20 oriental house flies per group were released in a (70 cm)^3 volume glass box and sprayed with each of the oil preparations prepared in Experimental Example 4 from the compounds of Table 3 below and allethrin in an amount of 0.7 ml under a pressure of 1.5 Kg/cm^2.

oriental house flies [3] = test: Potentiation of insecticidal activity by addition of piperonyl butoxide, topical application (Experimental Example 6); assay type: in vivo; conditions: piperonyl butoxide 5 times active ingredient; acetone solution on thoracic dorsal plate
Procedure: To each of the compounds (22), (51), (62), (63), (82), (86), (125), (150), (160), (176), (177), (178), (184), (185), (191), (195), (200), (201), (204), (208), (210), (212) and (226) was added piperonyl butoxide in an amount of 5 times that of the active ingredient, respectively to prepare an acetone solution having a given concentration. Each of the thus prepared acetone solutions was applied onto a thoracic dosal plate of oriental house flies using a microshringe to observe a synergestic effect on insecticidal activity by piperonyl butoxide.

[4] = system: Larvae of Mosquito (Culex pipiens); test: Insecticidal activity on larvae of mosquito (Experimental Example 2); assay type: in vivo; conditions: 24 h, read-out: LC50 (50% lethal concentration)
Procedure: (§2) An emulsifiable concentrate was prepared by blending each of the compounds (1) to (300) of the present invention, xylol and Sorpol SM-200 (trade name; manufactured by Toho Chemical Co., Ltd.) in a proportion of 25%, 50% and 25% (by weight), respectively. 20 to 25 day-old rice plants after seeding were grown in pots and sprayed with each 300-fold dilute solution of the emulsifiable concentrates thus prepared and a 300-fold dilute solution of carbaryl 30% wettable powder diluted with water as a control commercial agent in an amount of 10 ml/pot in each case and then the pots were covered by a cylindrical metal net. 15 small brown planthoppers (Delphacodes striatella Fallen) per group were released in each of the pots treated with carbaryl wettable powder, and compound (1) to (21) and (102) to (110), while 15 green rice leafhopper (Nephotettix bipuntatus cincticeps Uhler) per group were released in each of the pots treated with the carbaryl wettable powder and compounds (22) to (101) and (111) to (300).
Of the emulsifiable concentrates prepared in Experimental Example 1, each of those prepared from the compounds of Table 1 below was diluted with water to each of test concentrations and a 200 ml portion thereof was added to a 300 ml volume beaker. 30 larvae of mosquito per group were released in each of the beaker and allowed to stand for 1 day. Survival was observed and a LC50 (50% lethal concentration) was determined by calculating a percent killing in each case. As a control, lindane emulsifiable concentrate was used.

[5] = system: small brown planthoppers (Delphacodes striatella Fallen); test: Killing effect on small brown planthoppers on sprayed rice plants (Experimental Example 1); assay type: in vivo; conditions: 300-fold dilute solution, 10 ml/pot; one day after treatment; 1440 min
Procedure: as §2

[6] = system: green rice leafhopper (Nephotettix bipuntatus cincticeps Uhler); test: Killing effect on green rice leafhopper on sprayed rice plants (Experimental Example 1); assay type: in vivo; conditions: 300-fold dilute solution, 10 ml/pot; one day after treatment; 1440 min
Procedure: as §2

| SMILES | LD50 (Oral toxicity to mice) [mg/kg] | pest or weed control at 0.2 % [1] [%] | KT50 (50% knock-down time) (oriental house flies [2]) [s] | Potentiation magnification of insecticidal activity by the addition of piperonyl butoxide (oriental house flies [3]) | LC50 [4] [ng/mL] | killing effect [5] | killing effect [6] |
| --- | --- | --- | --- | --- | --- | --- | --- |
| CCC(C(=O)OCc1cccc(Oc2ccccc2)c1)c1ccc(OC)cc1 (stereo not drawn) [compound 80, 3'-Phenoxybenzyl-α-ethyl-4-methoxyphenylacetate] | > 2000 | – | – | – | – | – | – |
| C#CCc1ccc(C(C#C)OC(=O)C(c2ccc(OC)cc2)C(C)C)o1 (stereo not drawn) [compound 51, 5'-Propargyl-2'-(α'-ethynyl)-furfuryl-α-isopropyl-4-methoxyphenylacetate] | – | > 80 | 104 | 7.2 | – | – | – |
| CC(C)C(C(=O)OCc1coc(Cc2ccccc2)c1)c1ccc(F)cc1 (centres unmarked) [compound 208] | – | > 80 | 150 | 5.2 | – | – | – |
| CCC(C(=O)OCc1coc(Oc2ccccc2)c1)c1ccc(Cl)cc1 (centres unmarked) [compound 180] | – | > 80 | 157 | – | 7.2 (≈ 19.4 nM) | – | – |
| CC(C)C(C(=O)OC(C#N)c1cccc(Oc2ccccc2)c1)c1ccc(F)cc1 (centres unmarked) [compound 165] | – | > 80 | 145 | – | 1.2 (≈ 2.97 nM) | – | – |
| C#CCc1cc(C)c(COC(=O)C(c2ccc(Cl)cc2)C(C)C)c(C)c1 (centres unmarked) [compound 129] | > 1000 | – | – | – | – | – | – |
| CCC(C(=O)OCc1cccc(Oc2ccccc2)c1)c1ccccc1 (stereo not drawn) [compound 2, 3'-Phenoxybenzyl-α-ethylphenylacetate] | > 1000 | > 80 | – | – | 3.4 (≈ 9.81 nM) | – | – |
| CNC(=O)Oc1cccc2ccccc12 [carbaryl] | – | – | – | – | – | more than 90% | more than 90% |
| C=C(C)C(C(=O)OCc1cccc(Oc2ccccc2)c1)c1ccc(OC)cc1 (stereo not drawn) [compound 82, 3'-Phenoxybenzyl-α-isopropenyl-4-methoxyphenylacetate] | > 1000 | > 80 | 132 | 6.7 | – | – | – |
| CC(C)C(C(=O)OCc1cccc(Oc2ccccc2)c1)c1ccc(Cl)cc1 (centres unmarked) [compound 206] | > 1000 | – | – | 5.1 | 3.2 (≈ 8.1 nM) | – | – |
| CCC(C(=O)OCc1cccc(Oc2ccccc2)c1)c1ccc(C)cc1 (centres unmarked) [compound 176] | > 1000 | – | – | 5.2 | – | – | – |
| C=C(C)C(C(=O)OCc1cccc(Oc2ccccc2)c1)c1ccc(C)cc1 (stereo not drawn) [compound 125, 3'-Phenoxybenzyl-α -isopropenyl-4-methylphenylacetate] | 1000 | – | – | 6.0 | 3.2 (≈ 8.59 nM) | – | – |
| C#CCc1cc(C(C#C)OC(=O)C(CC)c2ccccc2)co1 (stereo not drawn) [compound 8, 5'-Propargyl-α '-ethynyl-3'-furylmethyl-α-ethyl-phenylacetate] | 750 | > 80 | 128 | – | – | – | – |
| Cc1ccc(C(C(=O)OCc2coc(Oc3ccccc3)c2)C(C)C)cc1 (centres unmarked) [compound 195] | – | > 80 | 140 | 5.7 | – | – | – |
| CC(C)C(C(=O)OCN1C(=O)c2ccccc2C1=O)c1ccc(Cl)cc1 (centres unmarked) [compound 130] | > 1000 | – | – | – | – | – | – |
| C=C(C)C(C(=O)OCc1cccc(Oc2ccccc2)c1)c1ccc(F)cc1 (stereo not drawn) [compound 121, 3'-Phenoxybenzyl-α-isopropenyl-4-fluorophenylacetate] | – | > 80 | 130 | – | 3.7 (≈ 9.83 nM) | – | – |
| COc1ccc(C(C(=O)OCc2cccc(Oc3ccccc3)c2)C(C)C)cc1 (stereo not drawn) [compound 62, 3'-Phenoxybenzyl-α-isopropyl-4-methoxyphenylacetate] | > 1000 | > 80 | 154 | 5.3 | – | – | – |
| COc1ccc(C(C(=O)OCc2coc(Cc3ccccc3)c2)C(C)C)cc1 (stereo not drawn) [compound 22, 5'-Benzyl-3'-furylmethyl-α-isopropyl-4-methoxyphenylacetate] | 900 | > 80 | 136 | 5.0 | – | – | – |
| C#CCc1ccc(C(C#C)OC(=O)C(c2ccc(Cl)cc2)C(C)C)o1 (centres unmarked) [compound 201] | – | > 80 | 105 | 7.0 | – | – | – |
| Cc1ccc(C(C(=O)OCc2cccc(Oc3ccccc3)c2)C(C)C)cc1 (stereo not drawn) [compound 108, 3'-Phenoxybenzyl-α-isopropyl-4-methylphenylacetate] | > 1000 | – | – | – | – | – | – |
| C#CCc1ccc(C(C#C)OC(=O)C(c2ccc(C)cc2)C(C)C)o1 (centres unmarked) [compound 200] | – | > 80 | 114 | 7.5 | – | – | – |
| CCC(C(=O)OCc1coc(Cc2ccccc2)c1)c1ccc(F)cc1 (centres unmarked) [compound 185] | – | > 80 | 137 | 5.0 | – | – | – |
| C=C(C)C(C(=O)OCc1cccc(Oc2ccccc2)c1)c1ccc(Br)cc1 (stereo not drawn) [compound 111, 3'-Phenoxybenzyl-α-isopropenyl-4-bromophenylacetate] | – | > 80 | 138 | – | 2.5 (≈ 5.72 nM) | – | – |
| C=C(C)C(C(=O)OCc1cccc(Oc2ccccc2)c1)c1ccc(Cl)cc1 (stereo not drawn) [compound 119, 3'-Phenoxybenzyl-α-isopropenyl-4-chlorophenylacetate] | > 1000 | > 80 | 132 | 5.5 | 4.4 (≈ 11.2 nM) | – | – |
| CCC(C(=O)OCc1coc(Cc2ccccc2)c1)c1ccc(Cl)cc1 (centres unmarked) [compound 184] | 940 | > 80 | 142 | 5.6 | 7.8 (≈ 21.1 nM) | – | – |
| Cc1ccc(C(C(=O)OCc2cc3c(s2)CCCC3)C(C)C)cc1 (centres unmarked) [compound 150] | > 1000 | – | – | 4.2 | – | – | – |
| CCC(C(=O)OCc1coc(Cc2ccccc2)c1)c1ccccc1 (stereo not drawn) [compound 1, 5'-Benzyl-3'-furylmethyl-α-ethyl-phenylacetate] | > 1000 | > 80 | 167 | – | 1.5 (≈ 4.49 nM) | – | – |
| Cc1ccc(C(C(=O)OCc2ccc(Cc3ccco3)s2)C(C)C)cc1 (centres unmarked) [compound 145] | > 1000 | – | – | – | 3.9 (≈ 10.6 nM) | – | – |
| COc1ccc(C(C(=O)OCc2ccc(Oc3ccccc3)o2)C(C)C)cc1 (stereo not drawn) [compound 63, 5'-Phenoxyfurfuryl-α-isopropyl-4-methoxyphenylacetate] | > 1000 | – | 140 | 4.8 | – | – | – |
